What all share (assay type): cell-based, Human
One data set has as its system NRF2. As to the kind of experiment: NRF2 protein analysis by western blot in FaDu cells. The conditions noted are these: 72-hour timepoint, relative to GapDH, normalized to wild-type. Here is the method:
Total protein was isolated from cells in RIPA buffer (Pierce), incubated on ice for 30 minutes with vortexing every 10 minutes. Samples were centrifuged at 14,000×G at 4° C. for 15 minutes and the supernatant was saved. Protein extracts were quantified using a BCA assay (Pierce) and 20 μg of protein was loaded onto a Biorad 4-20% polyacrylamide pre-cast gel (Biorad). Protein was transferred onto a […] nitrocellulose blot using the Turboblot dry transfer system (Biorad). The membrane was blocked in 5% milk in TBS-T for 2 hours at room temperature and stained with anti-NRF2 1:1000 (Abcam, ab62352) and anti-GAPDH 1:5,000 (Cell Signaling Technology, 97166). Blots were washed 3× at room temperature in TBS-T and stained with secondary antibodies conjugated to HRP 1:10,000 (Abcam, ab205718 or Thermofisher, PI31430). Blots were imaged using the Pierce Femto western blotting substrate (Pierce). Bands were quantified using the FIJI gel analysis tool package.
A general note: In western blotting, separated proteins are transferred to a membrane and probed.

Data set [1] deals with NRF2 gene. Description: Exon skipping analysis of NRF2 cDNA in FaDu and KYSE-410 cells. The conditions noted are these: 72 hours post-transfection, cDNA PCR 5′UTR to exon 5. Here is the method: Total RNA was isolated from edited cells using TRIzol reagent and PureLink RNA Mini Kit (Thermo Fisher Scientific, Waltham, MA). Reverse transcription was conducted using the Applied Biosystems High-Capacity RNA-to-cDNA kit (Thermo Fisher Scientific, Waltham, MA). The cDNA was used as the template for PCR amplification with either Phusion Flash or Phusion High-Fidelity PCR master mix (Thermo Fisher Scientific, Waltham, MA) with primers spanning the 5′UTR region through Exon 5 (798 bp) of the NRF2 gene. PCR reactions were purified using Qiagen Qiaquick PCR cleanup columns (Quiagen, Hilden, Germany) according to manufacturer's protocol, measured on a Nanodrop and equally loaded on a 1% agarose gel.
The difference between targeting exon 2 and exon 4 was intriguing, so we wanted to see if a molecular rearrangement, exon skipping, which we had identified previously within the NRF2 gene was at least in part responsible for this difference^33. Since we know NRF2 exon 2 and exon 4 are disrupted by design, and intra-genic changes are the objective of the experiment, we asked if exon skipping could account for the differential response in targeting exon 2 versus exon 4. FIG. 14A represents the potential exon skipping outcomes. For both the FADU and the KYSE-410 cells, at 72 hours post-transfection RNA was converted to cDNA followed by PCR amplification of the NRF2 cDNA (798 bp) spanning the 5′UTR to exon 5. […] The 798 bp is the full transcript while the lower band for sg3 is 531 bp and sg76 is 606 bp, the expected sizes of the removal of exon 2 (267 bp) and exon 4 (192 bp).

Data set [2] concerns NRF2 gene. As to the kind of experiment: NRF2 gene editing (indel/frameshift) analysis by NGS and CRISPResso2 in FaDu cells. The conditions noted are these: for knocking out NRF2 (DNA sequence data): exon 4. The method, then:
The NRF2 gene-coding sequence was entered into SnapGene and the following gRNAs were selected for targeting exon 2: (sg3) 5′-[…]-3′ (SEQ ID NO:75); as well as two gRNAs targeting Exon 4: (sg76) 5′-[…]-3′ (SEQ ID NO:16), (sg83) 5′-[…]-3′ (SEQ ID NO:24). Based on the gRNA design, synthetic single gRNAs were ordered from Synthego (Menlo Park, California, USA). CleanCap® Cas9 mRNA (5moU) was ordered from TriLink Biotechnologies (San Diego, CA, USA).
Either one million cells were seeded to a 75 cm^2 tissue culture flask or 2.5 million cells were seeded to a 175 cm^2 tissue culture flask 24 hours prior to transfection and allowed to reach 60-80% confluency. On the day of the transfection, cells were treated with Lipofectamine MessengerMAX reagent (Thermo Fisher Scientific, Waltham, MA) bearing 10 μg or 25 μg of Cas9mRNA and 10 μg or 25 μg of sgRNA, suspended in Opti-MEM, per the manufacturer's instructions. 39 μL or 97.5 μL of MessengerMax lipofectamine reagent was diluted in 1.5 mL or 3.75 mL OPTI-MEM medium and vortexed twice was incubated for ten minutes at room temperature, during which time the culture media was replaced with 15 mL or 25 mL of fresh media, as appropriate to the cell line. A total of 20 μg or 50 μg of RNA was then added to the diluted lipofectamine, consisting of 10 μg or 25 μg Cas9 mRNA and 10 μg or 25 μg sgRNA. The suspension was incubated at room temperature for an additional five minutes before being added, in full, to the tissue culture flask, which was then swirled gently to disperse the reagent. […]
Targeted amplicon libraries were prepared using Illumina's 16S metagenomic sequencing library preparation protocol for MiSeq. Genomic DNA was extracted from cells using the Qiagen's DNeasy Blood & Tissue kit (Quiagen, Hilden, Germany) or QuickExtract reagent (Biosearch Technologies). The region surrounding the CRISPR target site for Exon 2 (398 bp) and Exon 4 (402 bp) of the NRF2 gene were amplified using the 2× Phusion Flash PCR master mix (Thermo Fisher Scientific, Waltham, MA). Post amplification, samples were cleaned using AMPure beads and DNA concentration was measured using the Qubit assay (Thermo Fisher Scientific, Waltham, MA). Samples are also run on TapeStation (Agilent Technologies Santa Clara, CA) to verify the presence of the desired amplicon. The samples were indexed using either the IDT for Illumina DNA/RNA UD indexes set A (Illumina San Diego, CA). Samples were again quantified using Qubit and average library size was calculated using the Tapestation amplicon size. Once pooled to the loading concentration, the libraries were sequenced using the MiSeq Reagent kit v2 (Illumina, San Diego, CA). Only the data that passed data QC in Sequencing Analysis Viewer, was analyzed using CRISPResso2 (CRISPResso2 website) to understand gene editing efficiency and frameshift analysis.

Setting [3] is: 13 days (two weeks) after transfection.

The record followed here is patent US20250319206A1, “CRISPR/CAS GENE EDITING OF NEH4 AND/OR NEH5 DOMAINS IN NRF2” (Christina Care Gene Editing Institute, Inc., priority 2024, published 2025).

For the substance “sg3: gRNA targeting the DLG motif in exon 2 of NRF2; 5′-TATTTGACTTCAGTCAGCGA-3′ or TGGAGGCAAGATATAGATCT (further chemistry not given here) [reference compound]”, the “NRF2 protein knock down” value in the data set on NRF2 is 30%. Also, the exon skipping result in the data set on NRF2 gene [1] is “second lower band indicative of an exon skipping event”. Besides, the editing in the data set with NRF2 gene [2] (72 hr) is 85.5%. The editing with NRF2 gene [2] (setting [3]) was found to be 73.45%. Moreover, in the data set with NRF2 gene [2] (exon 2, 72 hours), the “frameshift mutations (of the total indels)” value was “exceeded 76%” and the total indel population result is listed as “exceeded 76%”.

For the substance “sg76: gRNA targeting exon 4 of NRF2; TCACTTGTTCCTGATATTCC CGG (guide TCACTTGTTCCTGATATTCCCGG; listed as DNA, chemistry not given here)”, the “NRF2 protein knock down” value in the data set with NRF2 turned out to be 90%. Also, the exon skipping entry in the data set on NRF2 gene [1] was “second lower band indicative of an exon skipping event”. Also, the values for the editing in the data set on NRF2 gene [2] (72 hr) and with NRF2 gene [2] (setting [3]) were 87% and 49.30%, respectively. Further, in the data set with NRF2 gene [2], the “knocking out NRF2 (DNA sequence data)” value is given as “efficient in knocking out NRF2 at exon 4”.

Turning to “sg83: gRNA targeting exon 4 of NRF2; GTAGCCCCTGTTGATTTAGA CGG (guide GTAGCCCCTGTTGATTTAGACGG; listed as DNA, chemistry not given here)”, the “NRF2 protein knock down” value in the data set on NRF2 is 90%. Further, the exon skipping result in the data set on NRF2 gene [1] is recorded as “some level of exon skipping activity is detected but at much lower rate”. Moreover, the figures for the editing in the data set with NRF2 gene [2] (72 hr) and in the data set on NRF2 gene [2] (setting [3]) were 86% and 40.95%, respectively. Also, the “knocking out NRF2 (DNA sequence data)” value in the data set with NRF2 gene [2] was “efficient in knocking out NRF2 at exon 4”.
